Source: patent US12233088B2 (Alexion Pharmaceuticals, Inc., priority 2017, dated 2025)

Columns and labels:
[1] = test system: patients with Wilson's disease
Method: This open-label, phase 2 study was performed at 11 hospitals in the USA and in Europe. […] Investigators, other hospital personnel, and patients were aware of the identity of the treatment. […] This study is registered with ClinicalTrials.gov, number NCT02273596.
The open-label, phase 2 study was performed at 11 hospitals. Eligible patients were aged 18 years or older, with a diagnosis of Wilson's disease established by a Leipzig score of 4 or more. […] Patients with decompensated hepatic cirrhosis, a MELD score greater than 11, or a modified Nazer score (revised King's score) greater than 6 were excluded.
Investigators, other hospital personnel, patients, and the study sponsor were aware of the identity of the treatment.
Up-titration was stepwise, with each increase restricted to double the previous dose, and not permitted if NCC was within or below the normal range.
Using values for plasma total copper and ceruloplasmin concentrations, NCC was calculated by subtracting the amount of copper bound to ceruloplasmin from total copper concentrations (determined with inductively coupled plasma mass spectrometry). […] The correction method used the average molar ratio of copper to molybdenum in the tripartite complex, which was determined using the relationship between NCC and plasma molybdenum concentrations and confirmed by two independent methods. The NCC correction method was validated using random selections of test and validation samples.
The primary endpoint was change in NCCcorrected from baseline to 24 weeks, which was measured as NCC concentrations corrected for copper contained in tetrathiomolybdate-copper-albumin complexes (NCCcorrected).
Secondary endpoints were safety and tolerability, change in and time to normalisation of NCCcorrected level clinical neurological disease, liver function, clinical symptoms, health-related quality of life (HRQoL), psychiatric status, and pharmacokinetics and exchangeable copper, speciation profiling, and urinary copper. Psychiatric status, pharmacokinetics data, and copper endpoints were also measured. Neurological disease was assessed as patient-reported disability, measured with UWDRS part II, and also as trained-rater-assessed neurological status, measured with UWDRS part III. Liver synthetic function was assessed by monitoring of international normalised ratio (INR) and albumin concentrations. Additionally, changes in liver function were assessed by modified Nazer score (based on bilirubin, INR, AST, albumin, and white blood cell count) and, in a post-hoc analysis, by the MELD score (based on bilirubin, creatinine, INR, and cause of liver disease). HRQoL was measured with the EuroQoL 5 Dimensions Visual Analogue Scale (EQ VAS).
Adverse event (AE) data was collected for onset, duration, seriousness, and severity, with relation to study medication determined by the investigator.
Since the aim of the study was to present primarily descriptive statistics, no formal power calculations were performed. Changes in copper concentrations and scores were summarised over time with descriptive statistics. Mixed-model repeated-measures analysis with a fixed-effect term were applied for clinic visit, and a spatial power covariance structure was applied to model the within-participant errors. A spatial power covariance structure was selected because it assumes that the within-participant correlation decays as the time distance increases between repeated measures. SAS (version 9.3) was utilised to provide change in least-squares mean over time, and the associated 95% CIs, SE, and two-sided p values.

[2] = test system: patients with WD
Text: Example 1 was an open-label multicenter single-arm phase 2 trial conducted in 28 adults with a diagnosis of WD established by a Leipzig score of ≥4.
Data were collected from the first 72 weeks of the extension period for the following parameters: (a) NCC levels, corrected for bound copper contained in tetrathiomolybdate-copper-albumin complexes (NCCcorrected); (b) Liver status, measured using standard laboratory measures and also by Model for End-Stage Liver Disease (MELD) score (based on bilirubin, creatinine and international normalized ratio [INR]); (c) Patient-reported disability using Unified Wilson Disease Rating Scale (UWDRS) part II, and neurological status using UWDRS part III; and (d) Safety is shown below.

[3] = baseline to week 24, least-squares mean, mixed-model repeated measures
[4] = baseline to week 24, mixed-model repeated measures
[5] = mixed-model repeated measures using all visits up to week 24

Compound: C[N+](C)(C)CCO.C[N+](C)(C)CCO.[SH-].[SH-].[S]=[Mo]=[S] [WTX101, bis-choline tetrathiomolybdate]
- Patients reporting at least one treatment-emergent adverse event, Number of Patients (%) ([1]; 24 weeks, N=28): 17 (61%)
- adverse event ALT increased, Number of Patients (%) ([1]; 24 weeks, N=28): 8 (29%)
- adverse event AST increased, Number of Patients (%) ([1]; 24 weeks, N=28): 7 (25%)
- adverse event Blood alkaline phosphatase increased, Number of Patients (%) ([1]; 24 weeks, N=28): 3 (11%)
- adverse event Dry Skin, Number of Patients (%) ([1]; 24 weeks, N=28): 2 (7%)
- adverse event GGT increased, Number of Patients (%) ([1]; 24 weeks, N=28): 8 (29%)
- adverse event Headache, Number of Patients (%) ([1]; 24 weeks, N=28): 2 (7%)
- adverse event Hepatic enzyme increased, Number of Patients (%) ([1]; 24 weeks, N=28): 4 (14%)
- adverse event Nausea, Number of Patients (%) ([1]; 24 weeks, N=28): 2 (7%)
- adverse event Tremor, Number of Patients (%) ([1]; 24 weeks, N=28): 2 (7%)
- Relationship to the study drug as deemed by the investigator: ALT increased ([1]; SAE, baseline to week 24): Possible
- Relationship to the study drug as deemed by the investigator: Abnormal behavior ([1]; SAE, baseline to week 24): Unrelated
- Relationship to the study drug as deemed by the investigator: Adjustment disorder ([1]; SAE, baseline to week 24): Unrelated
- Relationship to the study drug as deemed by the investigator: Affective disorder ([1]; SAE, baseline to week 24): Unrelated
- Relationship to the study drug as deemed by the investigator: Agranulocytosis ([1]; SAE, baseline to week 24): Probable
- Relationship to the study drug as deemed by the investigator: Gait disturbance ([1]; SAE, baseline to week 24): Unlikely
- Relationship to the study drug as deemed by the investigator: Hepatic enzyme increased (severe ALT/AST elevation) ([1]; SAE, baseline to week 24): Probable
- Relationship to the study drug as deemed by the investigator: Mania ([1]; SAE, baseline to week 24): Unlikely
- Relationship to the study drug as deemed by the investigator: Personality disorder ([1]; SAE, baseline to week 24): Unlikely
- Relationship to the study drug as deemed by the investigator: Psychotic disorder ([1]; SAE, baseline to week 24): Unrelated
- Relationship to the study drug as deemed by the investigator: Decline in neurological functioning ([1]; SAE, baseline to week 24, likely due to disease progression): Possible
- week by which mean NCCcorrected was below the upper limit of normal ([1]; ULN 2.3 μmol/L): ≤ 12 week
- time to normalisation of liver function tests ([1]; after dose adjustments or treatment interruption): 1-2 weeks
- time of occurrence of liver enzyme increases ([1]; after initiation, at 30 mg/day or higher): 4-10 weeks
- patients who achieved or maintained normalised NCCcorrected, n (%) ([1]; at 24 weeks, of 28 patients): 16 (57%)
- patients with at least a 25% reduction from baseline NCCcorrected, n (%) ([1]; at 24 weeks, of 28 patients): 4 (14%)
- patients meeting the criteria for treatment success ([1]; at 24 weeks, of 28 patients, normalised NCCcorrected (≤2.3 μmol/L) or ≥25% reduction): 71%
- reduction of mean NCCcorrected ([1]; baseline to week 24): 72%
- UWDRS part II score Change from baseline [1, 3]: −3.7
- UWDRS part III score Change from baseline [1, 3]: −8.7
- Albumin Change from baseline [1, 4]: 2.3 g/L
- Bilirubin Change from baseline [1, 4]: 0.02 mg/dL
- EQVAS Change from baseline [1, 4]: 9.2
- INR Change from baseline [1, 4]: −0.05
- Modified Nazer score Change from baseline [1, 4]: −0.4
- Platelets Change from baseline [1, 4]: 2.3 1 × 10^9/L
- MELD score Change from baseline ([1]; baseline to week 24, post-hoc, mixed-model repeated measures): −0.5
- increase of median peak ALT from baseline ([1]; in the 11 patients with liver enzyme increases): 7.2 times
- median peak ALT ([1]; in the 11 patients with liver enzyme increases, range 101-1341): 197 U/L
- ALT Change from baseline [1, 5]: 48.4 U/L
- AST Change from baseline [1, 5]: 3.8 U/L
- GGT Change from baseline [1, 5]: 60.7 U/L
- most pronounced ALT signal ([1]; one patient, 30 mg/day): 1341 U/L
- second highest ALT signal ([1]; one patient, 120 mg/day): 615 U/L
- patients with UWDRS part II score improved by at least one point, n (%) ([1]; week 24): 12 (57%)
- patients with UWDRS part III score improved by 4 or more points, n (%) ([1]; week 24): 14 (67%)
- Modified Nazer score Week 24 Mean (SD) ([1]; week 24, n=21, baseline 1.4 (1.0)): 1.1 (0.6)
- EQVAS Week 24 Mean (SD) ([1]; week 24, n=23, baseline 65.9 (23.0)): 74.3 (16.9)
- INR Week 24 Mean (SD) ([1]; week 24, observed cases, n=22, baseline 1.11 (0.16)): 1.06 (0.08)
- Bilirubin Week 24 Mean (SD) ([1]; week 24, observed cases, n=23, baseline 0.51 (0.29)): 0.49 (0.27) mg/dL
- NCCcorrected Week 24 Mean (SD) ([1]; week 24, observed cases, n=23, baseline 3.6 (2.1)): 0.9 (1.0) μmol/L
- AST Week 24 Mean (SD) ([1]; week 24, observed cases, n=23, baseline 36.6 (27.6)): 28.2 (9.9) U/L
- Albumin Week 24 Mean (SD) ([1]; week 24, observed cases, n=23, baseline 39.2 (5.4)): 40.9 (3.2) g/L
- ALT Week 24 Mean (SD) ([1]; week 24, observed cases, n=23, baseline 42.6 (32.8)): 36.8 (18.7) U/L
- GGT Week 24 Mean (SD) ([1]; week 24, observed cases, n=23, baseline 70.1 (64.0)): 97.5 (77.7) U/L
- Platelets Week 24 Mean (SD) ([1]; week 24, observed cases, n=23, baseline 155.5 (72.5)): 147.9 (63.2) 1 × 10^9/L
- MELD score Week 24 Mean (SD) ([1]; week 24, post-hoc, n=21, baseline 7.7 (1.9)): 7.2 (1.8)
- Relationship to the study drug as deemed by the investigator: Acute lower back pain (week 37) ([2]; SAE after week 24): Unrelated
- Relationship to the study drug as deemed by the investigator: Dizziness (week 113) ([2]; SAE after week 24): Possible
- Relationship to the study drug as deemed by the investigator: Loss of consciousness (week 113) ([2]; SAE after week 24): Possible
- Relationship to the study drug as deemed by the investigator: Mania (week 38) ([2]; SAE after week 24): Unlikely
- Relationship to the study drug as deemed by the investigator: Neutropenia (week 36) ([2]; SAE after week 24): Possible
- Relationship to the study drug as deemed by the investigator: Exacerbation of WD (week 46) ([2]; SAE after week 24, likely due to disease progression): Possible
- SAE Acute lower back pain (week 37), number of patients ([2]; after week 24): 1
- SAE Dizziness (week 113), number of patients ([2]; after week 24): 1
- SAE Exacerbation of WD (week 46), number of patients ([2]; after week 24): 1
- SAE Loss of consciousness (week 113), number of patients ([2]; after week 24): 1
- SAE Mania (week 38), number of patients ([2]; after week 24): 1
- number of patients with ≥1 SAEs ([2]; after week 24): 5 patients
- number of serious adverse events ([2]; after week 24): 6 events in
- SAE Neutropenia (week 36), number of patients ([2]; after week 24, grade 1, normalized with dose reduction): 1
- INR, mean ± standard error ([2]; beginning of extension period (week 24), N=22): 1.06 ± 0.0
- NCCcorrected, mean ± standard error ([2]; beginning of extension period (week 24), N=22, baseline 3.6 ± 0.4): 0.9 ± 0.2 µM
- UWDRS part II score, mean ± standard error ([2]; beginning of extension period (week 24), N=22, baseline 6.6 ± 1.9): 4.1 ± 1.8
- MELD score, mean ± standard error ([2]; beginning of extension period (week 24), N=22, baseline 7.7 ± 0.4): 7.2 ± 0.4
- UWDRS part III score, mean ± standard error ([2]; beginning of extension period (week 24), N=22, baseline 22.8 ± 4.0): 16.6 ± 3.9
- Albumin, mean ± standard error ([2]; beginning of extension period (week 24), N=22, baseline 39.2 ± 1.0): 40.9 ± 0.7 g/L
- ALT, mean ± standard error ([2]; beginning of extension period (week 24), N=22, baseline 42.6 ± 6.2): 36.8 ± 3.9 U/L
- AEs considered unrelated or unlikely related to therapy ([2]; between week 24 and 72): 89%
- AEs mild or moderate ([2]; between week 24 and 72): 89%
- mean INR, albumin, ALT levels and MELD score (liver function) ([2]; between week 24 and week 72): improved or unchanged
- reversible ALT elevations requiring dose adjustments ([2]; extension period): not observed
- hemoglobin measurements below the normal range ([2]; over the follow-up period): 5.2%
- patients with low hemoglobin at some point ([2]; over the follow-up period, none below 100 g/L): 7 patients
- mean UWDRS disability score and neurological signs score ([2]; week 24 to 72): continued improvements
- subjects with neutropenia accompanied by mild anemia and low NCC levels ([2]; week 36 and 72, responded to dose reduction): Two
- decrease in number of reported AEs and SAEs ([2]; weeks 1-24 to weeks 25-72): around 50%
